PubChem BioAssay AID1845207 (Molecular Pharmacology Branch, DTP, NCI, 2023)
Values joined by “and” are separate entries in the source; they are usually repeats but may differ in a detail not shown here. Equal entries are not always repeated.

Tested on: NCI-H1876 tumor spheroid viability
Assay: Anticancer human tumor NCI-H1876 cell line growth inhibition;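 also: spheroids exposed to compounds for seven days before the viability read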;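 as to viability, T/C: percent of DMSO vehicle control viability so 100% = vehicle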
Settings: spheroids with HUVEC and MSC; for viability, T/C: stronger effect = lower value
In short: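 Complex spheroids of malignant cells with endothelial cells and mesenchymal stem cells; agents alone or combined, from near clinical Cmax (or 10 microM if unknown) down in half-log steps, 0.25% DMSO final.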

Cc1sc2c(c1C)C(c1ccc(Cl)cc1)=NC(CC(=O)Nc1ccc(O)cc1)c1nnc(C)n1-2 (stereo not drawn) + CC[C@@]1(O)C(=O)OCc2c1cc1n(c2=O)Cc2cc3c(CN(C)C)c(O)ccc3nc2-1
IC50 (curve of first compound, second compound 0.003 µM): 31.8 nM | IC50 (curve of first compound, second compound 0.00949 µM): < 9.49 nM | IC50 (curve of first compound, second compound 0.03 µM): < 9.49 nM | IC50 (curve of first compound, second compound 0.0949 µM): < 9.49 nM | IC50 (curve of first compound, second compound 0.3 µM): < 9.49 nM | viability, T/C (second compound 0.003 µM, first compound 0.00949 µM): 70.7% | viability, T/C (second compound 0.003 µM, first compound 0.03 µM): 52.3% | viability, T/C (second compound 0.003 µM, first compound 0.0949 µM): 25.6% | viability, T/C (second compound 0.003 µM, first compound 0.3 µM): 15.8% | viability, T/C (second compound 0.003 µM, first compound 0.949 µM): 8.93% | viability, T/C (second compound 0.003 µM, first compound 3 µM): 5.64% | viability, T/C (second compound 0.00949 µM, first compound 0.00949 µM): 30.6% | viability, T/C (second compound 0.00949 µM, first compound 0.03 µM): 46.8% | viability, T/C (second compound 0.00949 µM, first compound 0.0949 µM): 16.6% | viability, T/C (second compound 0.00949 µM, first compound 0.3 µM): 12.2% | viability, T/C (second compound 0.00949 µM, first compound 0.949 µM): 7.36% | viability, T/C (second compound 0.00949 µM, first compound 3 µM): 5.57% | viability, T/C (second compound 0.03 µM, first compound 0.00949 µM): 12.2% | viability, T/C (second compound 0.03 µM, first compound 0.03 µM): 30% | viability, T/C (second compound 0.03 µM, first compound 0.0949 µM): 12.2% | viability, T/C (second compound 0.03 µM, first compound 0.3 µM): 10.8% | viability, T/C (second compound 0.03 µM, first compound 0.949 µM): 5.27% | viability, T/C (second compound 0.03 µM, first compound 3 µM): 4.32% | viability, T/C (second compound 0.0949 µM, first compound 0.00949 µM): 7.77% | viability, T/C (second compound 0.0949 µM, first compound 0.03 µM): 8.11% | viability, T/C (second compound 0.0949 µM, first compound 0.0949 µM): 8.71% | viability, T/C (second compound 0.0949 µM, first compound 0.3 µM): 7.87% | viability, T/C (second compound 0.0949 µM, first compound 0.949 µM): 5.5% | viability, T/C (second compound 0.0949 µM, first compound 3 µM): 4% | viability, T/C (second compound 0.3 µM, first compound 0.00949 µM): 3.46% | viability, T/C (second compound 0.3 µM, first compound 0.03 µM): 3.69% | viability, T/C (second compound 0.3 µM, first compound 0.0949 µM): 3.67% | viability, T/C (second compound 0.3 µM, first compound 0.3 µM): 3.02% | viability, T/C (second compound 0.3 µM, first compound 0.949 µM): 2.65% | viability, T/C (second compound 0.3 µM, first compound 3 µM): 1.56%

Cn1ncnc1[C@H]1c2n[nH]c(=O)c3cc(F)cc(c23)N[C@@H]1c1ccc(F)cc1
viability, T/C (compound 0.00949 µM): 88.9% and 68.4% and 87.4% | viability, T/C (compound 0.03 µM): 73.5% and 65.7% and 71.3% | viability, T/C (compound 0.0949 µM): 52.3% and 49.7% and 39.4% | viability, T/C (compound 0.3 µM): 28.3% and 25.2% and 21.1% | viability, T/C (compound 3 µM): 0.28% and 7.28% and 3.57% | IC50 (curve of compound): 104 nM and 84.6 nM and 67.4 nM

Cc1sc2c(c1C)C(c1ccc(Cl)cc1)=NC(CC(=O)Nc1ccc(O)cc1)c1nnc(C)n1-2 (stereo not drawn)
viability, T/C (compound 0.00949 µM): 94.3% and 86.8% and 105% | viability, T/C (compound 0.03 µM): 71.5% and 70.6% and 109% | viability, T/C (compound 0.0949 µM): 51.4% and 53% and 109% | viability, T/C (compound 0.3 µM): 33.7% and 35.1% and 81.6% | viability, T/C (compound 0.949 µM): 17% and 16% and 39.7% | viability, T/C (compound 3 µM): 12.9% and 9.5% and 12.3% | IC50 (curve of compound): 98.8 nM and 112 nM and 709 nM
